Marks after values point to notes of the source that are not given here.
Assays:
[1] = test system: mice; test: Cross maze exploratory behavior, HEF and LEF mice; format: in vivo; conditions: i.p. once a day 5 days, Compounds 1 and 4 100 mg/kg, Piracetam 200 mg/kg
[2] = test system: mice; test: Maximum life span (MLS) of mice; format: in vivo; conditions: for The maximum life span (number of days in %): mice, change vs untreated control = 100
Method: The maximum life span (MLS) of mice according to our long-term statistical observations is 2.7-3, 2 years, i.e. in average 2.95 years or 1077 days. For this study we selected mice (10 individuals per group), males with dominant behavior in mixed groups, that safely survived to 985 days without signs of pronounced senility and with satisfactory orientation-exploratory behavior, determined by the “open field test” method. Phenotropil in doses of 25, 50 and 100 mg/kg was administered orally with 5.0% glucose solution. Glucose solution was used solely to improve the solubility of the drug. One control group received the glucose solution and the second one—distilled water. The third control group was not treated.

[3] = test system: rats; test: Alcohol dependence and abstinence, free choice of water and alcohol; format: in vivo
From the text: (§1) The antitoxic, sobering and anticraving, activity, as well as the effect of Phenotropil in abstinence was studied on white outbred male rats (weighing 180-220 g) and male mice (weighing 18-24 g) in chronic alcoholism. […] Alcoholized rats after four months of alcoholism and treatment with Phenotropilom voluntarily give up intake of alcohol (anticraving activity) with free choice of water and alcohol (Table 11).

[4] = test system: rats; test: Hemorrhagic stroke (intracerebral post-traumatic hematoma), McGrow scale; format: in vivo
From the text: The stroke condition was simulated in male rats (270-320 g) at a local cerebral hemorrhage, as a hemorrhagic stroke (intracerebral post-traumatic hematoma) by the method of A. N. Makarenko et al (1990) and at cerebral ischemia with distal occlusion of the middle cerebral artery (Chen S. T., Hsu C. Y., Hogan E. L., Maricq H., Balentine J. D. A model of focal ischemic stroke in the rat reproducible extensive cortical infarction//Stroke.—1989, V. 17, No 4, p. 738-743) as an ischemic stroke. Phenotropil was injected intraperitoneally at hemorrhagic stroke at 100 mg/kg immediately after surgery, and one hour before and two hours after the surgery (at doses of 100, 200 and 300 mg/kg) at ischemic stroke. Control animals were treated adequately with distilled water.

[5] = Stability during storage; format: physicochemical; conditions: sterile 0.001-3% solutions with cyclodextrin or Tween, ampoules
Method: The resulting compositions are stable. The studies were conducted in accordance with regulatory requirements for determination when stored in natural conditions (in a dry, dark place at a temperature not exceeding 30° C.) and using the standard method of accelerated aging.
The crystalline powder of the Phenotropil substances is not volatile, has white, rarely white to slightly yellowish or slightly cream color, bitter taste (bitter taste that disappears in the mouth rather quickly after dissolution, leaving no unpleasant sensations). In the related products, the bitter taste persists. The Compounds are sparingly soluble in water and saline, moderately soluble in 96.0% alcohol and chloroform. Readily soluble in water and saline under heating, but the solutions are not stable during cooling and storage under normal conditions (not more than 2 hours, which is acceptable for the extemporaneous preparations and research), moderately soluble in 5.0% glucose solution, dissolve well in the presence of solubilizers and emulsifiers. Tween80 and cyclodextrins increase solubility in water, especially Tween80, while cyclodextrins have limitations by concentration. […]

[6] = normal conditions and high physical activity; cited from earlier work
[7] = test system: mice; test: Toxic effect of ethanol (lateral position, lethal dose); format: in vivo; conditions: 25.0-200 mg/kg
From the text: as §1

[8] = Solubility; format: physicochemical
From the text: The crystalline powder of the Phenotropil substances is not volatile, has white, rarely white to slightly yellowish or slightly cream color, bitter taste (bitter taste that disappears in the mouth rather quickly after dissolution, leaving no unpleasant sensations). In the related products, the bitter taste persists. The Compounds are sparingly soluble in water and saline, moderately soluble in 96.0% alcohol and chloroform. Readily soluble in water and saline under heating, but the solutions are not stable during cooling and storage under normal conditions (not more than 2 hours, which is acceptable for the extemporaneous preparations and research), moderately soluble in 5.0% glucose solution, dissolve well in the presence of solubilizers and emulsifiers. Tween80 and cyclodextrins increase solubility in water, especially Tween80, while cyclodextrins have limitations by concentration. Sterile 0.001-3% solutions of Phenotropil in the presence of cyclodextrin or Tween (water for injection, Phenotropil, cyclodextrin (or Tween solution) were thoroughly stirred for 30 minutes, filtered, dispensed into ampoules of neutral glass, the ampoules were sealed and sterilized for 15 minutes at 120° C.). Sterile solutions are storage stable for at least 12 months. The ultimate shelf life is not specified; the samples are being stored.

[9] = abstinent rats, 7-month alcoholism, 200 mg/kg, day 3
[10] = abstinent rats, 7-month alcoholism, 200 mg/kg, day 4
[11] = after-effect of 45-day course 100 mg/kg, 1st day
[12] = after-effect of 45-day course 100 mg/kg, 2nd day
[13] = after-effect of 45-day course 100 mg/kg, 3rd day
[14] = rats, 4-month alcoholism, 100 mg/kg, 45th day of administration
[15] = rats, hemorrhagic stroke, 100 mg/kg i.p., 1 day after surgery

NC(=O)CN1CC(c2ccccc2)CC1=O (racemic) [Compound 1, (RS)-2-(2-oxo-4-phenylpyrrolidine-1-yl)acetamide]
Kt (trigger transmission coefficient) ([1]; HEF mice): 3.3 ± 0.3
Number of compartment explorations ([1]; HEF mice): 4.3 ± 0.4 //
Number of surveillances ([1]; HEF mice): 1.3 ± 0.2
Kt (trigger transmission coefficient) ([1]; LEF mice): 3.1 ± 0.35
Number of compartment explorations ([1]; LEF mice): 5.0 ± 0.5 //
Number of surveillances ([1]; LEF mice): 1.6 ± 0.2
Kt (trigger transmission coefficient) ([1]; population as a whole): 3.2 ± 0.45
Number of compartment explorations ([1]; population as a whole): 4.5 ± 0.7 //
Number of surveillances ([1]; population as a whole): 1.4 ± 0.2
increase of maximum life span ([2]; 25 mg/kg): 23.3%
increase of maximum life span ([2]; 100 mg/kg): 24.0%
increase of life span, average of all experimental groups ([2]; male mice aged 985 days, 25, 50, 100 mg/kg orally): 22.0%
The maximum life span (number of days in %) ([2]; 25 mg/kg + 5.0% glucose solution): +20.1 * %
The maximum life span (number of days in %) ([2]; 50 mg/kg + 5.0% glucose solution): +15.0 * %
The maximum life span (number of days in %) ([2]; 100 mg + 5.0% glucose solution): +20.8 * %
Alcohol consumption [3, 9]: 4.8 ± 0.8 mL/day
Alcohol consumption vs control [3, 9]: −58.6%
Alcohol consumption [3, 10]: 2.4 ± 0.7 mL/day
Alcohol consumption vs control [3, 10]: −74.0%
Alcohol consumption ([3]; abstinent rats, 7-month alcoholism, 200 mg/kg, day 14): 0.0 ** ml/day
Alcohol consumption [3, 11]: 3.3 ± 1.1 mL/day
Water consumption [3, 11]: 26.7 ± 3.9 mL/day
Alcohol consumption [3, 12]: 0.0 ** ml/day
Water consumption [3, 12]: 20.2 ± 3.3 mL/day
Alcohol consumption [3, 13]: 0.0 ** ml/day
Water consumption [3, 13]: 21.2 ± 3.5 mL/day
Alcohol consumption [3, 14]: 10.5 ± 4.2 mL/day
Water consumption [3, 14]: 24.0 ± 5.9 mL/day
prevention of lethal outcomes, % of cases ([4]; hemorrhagic and ischemic stroke in rats, follow up 14 days): 100%
% of animals with circling movements [4, 15]: 0* %
% of animals with lethargy, slowness of movement [4, 15]: 30%
% of animals with paralysis of 1-4 limbs [4, 15]: 0* %
% of animals with paresis of 1-4 limbs [4, 15]: 20* %
% of animals with weakness of limbs [4, 15]: 30* %
Mortality [4, 15]: 0* %
storage stability of sterile solutions [5]: at least 12 months
time of excretion from the body [6]: 72 h
toxic effect of ethanol (lateral position indicator and lethal dose) [7]: reduced tenfold
solubility in 96% alcohol and chloroform [8]: moderately soluble
solubility in water (and saline) [8]: sparingly soluble in water
